In US20210087593A1, “N-[…] ALKALOID COMPOUNDS” (Willow BioSciences Inc., priority 2017, published 2021):

Columns and labels:
PsRNMT = test: N-alkylation substrate screen using PsRNMT (LC-MS); type: biochemical, Papaver somniferum; design: key: −=no detectable quantities of product N-alkylated compound; Trace, +, ++, +++=increasing relative levels of product N-alkylated compound; Trace, +, ++, +++=increasing relative levels of product N-alkylated compound; Trace, +, ++, +++=increasing relative levels of product N-alkylated compound; Trace, +, ++, +++=increasing relative levels of product N-alkylated compound; settings: 25 μg protein, 1 mM substrate, 1 mM SAM, 60 mM HEPES pH 8, 16 hours at 37° C.; relative level of N-alkylated product by LC-MS
Procedure: (§1) The GfCNMT, GfTNMT and PsRNMT coding sequences were amplified from Glaucium flavum (GfCNMT and GfTNMT) or Papaver somniferum (PsRNMT) cDNA using gene-specific primers containing attB recombination sites with Q5 HiFi DNA polymerase (NEB). Recombination reactions were carried out using BP and LR Clonase II (Thermo Scientific) to generate individual pDONR221 entry plasmids and, subsequently, individual pHGWA plasmids for heterologous expression of polyhistidine (HIS6)-tagged recombinant GfCNMT, GfTNMT and PsRNMT. Protein overexpression was carried out at 18° C. using E. coli ArcticExpress (Agilent) grown in Studier's autoinduction media.
(§2) Total soluble protein was extracted from each culture and the recombinant NMTs were purified using TALON cobalt affinity resin (Clontech) followed by desalting and concentration with Amicon Ultra-30 centrifugal filters (EMD Millipore). Protein concentration was determined using the Bradford method, and purity was assessed by SDS-PAGE followed by Coomassie staining.
(§3) Forty-four nitrogenous molecules were screened as potential substrates for EsNMT using a standardized assay (25 μg protein, 1 mM substrate, 1 mM SAM, 60 mM HEPES pH 8, 16 hours at 37° C.). In addition, a representative subset was screened as potential substrates for GfCNMT, GfTNMT and PsRNMT under identical conditions. For each substrate and enzyme combination, negative control assays were carried out using protein heated to 100° C. (boiled) for 20 minutes. Assays were quenched with 9 volumes of methanol, centrifuged to pellet insoluble debris and the supernatants were stored at −20° C. prior to analysis.
(§4) Assay supernatants were analyzed by liquid chromatography-mass spectrometry (LC-MS). LC-MS analysis was performed using a 1200 HPLC coupled with a 6410 triple-quadrupole MS (Agilent). Samples (2 μl) were injected onto a Luna […] Phenyl-Hexyl 100 Å HPLC column and analytes were eluted in a gradient of solvent A (0.1% Formic acid, 5% v/v methanol in water) and solvent B (0.1% Formic acid in methanol) at a flow rate of 300 μl per minute. The gradient began at 0% B, reached 35% B by 12 minutes, then increased to 85% B at 14 min and remained at that level until 18 minutes. Subsequently, the mixture returned to 0% B over a period of 3 minutes before a final 6 minute re-equilibration period. Analytes were applied to the mass analyzer using an electrospray ionization probe operating in positive mode with the following condition: capillary voltage, 4000V; fragmentor voltage, 100V, source temperature, 350° C.; nebulizer pressure, 50 PSI; gas flow 10 L/min. Ions were detected in full scan mode where quadrupoles 1 and 2 were set to RF only, whereas the third quadrupole scanned from 100-500 m/z over 525 milliseconds. Substrate acceptance by the enzymes was determined according to the formation of a peak with a 14-m/z increase in mass, corresponding to methylated substrate and a decrease in the substrate peak area, relative to the appropriate boiled control assay.
(§5) Each of the alkaloid substrates shown in Table 1 were incubated with the following N-alkyltransferases: GfCNMT (SEQ. ID NO: 3), gfTNMT (SEQ. ID NO: 4) and Ps RNMT ([…]) and EsNMT (SEQ. ID NO: 2), as described in Example 1. The presence of N-alkylated alkaloid product was detected as described in Examples 1-20. Legend: ND=Not Determined; −=no detectable quantities of product N-alkylated compound; and Trace, +, ++, +++=increasing relative levels of product N-alkylated compound.

GfTNMT = test: N-alkylation substrate screen using GfTNMT (LC-MS); type: biochemical, Glaucium flavum; design: key: −=no detectable quantities of product N-alkylated compound; Trace, +, ++, +++=increasing relative levels of product N-alkylated compound; Trace, +, ++, +++=increasing relative levels of product N-alkylated compound; Trace, +, ++, +++=increasing relative levels of product N-alkylated compound; Trace, +, ++, +++=increasing relative levels of product N-alkylated compound; settings: 25 μg protein, 1 mM substrate, 1 mM SAM, 60 mM HEPES pH 8, 16 hours at 37° C.; relative level of N-alkylated product by LC-MS
Procedure: as §1, §2, §3, §4, §5

GfCNMT = test: N-alkylation substrate screen using GfCNMT (LC-MS); type: biochemical, Glaucium flavum; design: key: −=no detectable quantities of product N-alkylated compound; Trace, +, ++, +++=increasing relative levels of product N-alkylated compound; Trace, +, ++, +++=increasing relative levels of product N-alkylated compound; Trace, +, ++, +++=increasing relative levels of product N-alkylated compound; Trace, +, ++, +++=increasing relative levels of product N-alkylated compound; settings: 25 μg protein, 1 mM substrate, 1 mM SAM, 60 mM HEPES pH 8, 16 hours at 37° C.; relative level of N-alkylated product by LC-MS
Procedure: as §1, §2, §3, §4, §5

EsNMT = test: N-alkylation substrate screen using EsNMT (LC-MS); type: biochemical, Ephedra sinica; design: key to N-alkylation of substrate alkaloid compounds, Enzyme EsNMT: −=no detectable quantities of product N-alkylated compound; Trace, +, ++, +++=increasing relative levels of product N-alkylated compound; Trace, +, ++, +++=increasing relative levels of product N-alkylated compound; Trace, +, ++, +++=increasing relative levels of product N-alkylated compound; Trace, +, ++, +++=increasing relative levels of product N-alkylated compound; settings: for N-alkylation of substrate alkaloid compounds, Enzyme EsNMT: 25 μg protein, 1 mM substrate, 1 mM SAM, 60 mM HEPES pH 8, 16 hours at 37° C., relative level of N-alkylated product by LC-MS; for N-alkylated alkaloid product detected after incubation with EsNMT (SEQ. ID NO: 2): incubated in accordance with Example 1, LC-MS
Procedure: The EsNMT coding sequence was amplified from Ephedra sinica cDNA using gene-specific primers containing restriction sites with Q5 HiFi DNA polymerase (NEB). Restriction digests and ligations (NEB) were carried out to generate a pQE plasmid (Qiagen) for heterologous expression of HIS6-tagged recombinant EsNMT. Protein overexpression was carried out at 18° C. in Escherichia coli SG13009 (Qiagen) grown in lysogeny broth (LB) to which 0.5 mM isopropyl β-D-1-thiogalactopyranoside (IPTG) was added.
as §2, §3, §4, §5

Row | SMILES | N-alkylation of substrate alkaloid compounds, Enzyme PsRNMT (PsRNMT) | N-alkylation of substrate alkaloid compounds, Enzyme GfTNMT (GfTNMT) | N-alkylation of substrate alkaloid compounds, Enzyme GfCNMT (GfCNMT) | N-alkylation of substrate alkaloid compounds, Enzyme EsNMT (EsNMT) | N-alkylated alkaloid product detected after incubation with EsNMT (SEQ. ID NO: 2) (EsNMT)
1 | CC(N)Cc1ccccc1 (stereo not drawn) [Amphetamine, amphetamine, reference compound] | − | Trace | Trace | + | 
2 | COc1cc2c(cc1O)C(Cc1ccc(O)cc1)NCC2 (stereo not drawn) [Coclaurine, coclaurine] | ++ | + | +++ | + | 
3 | COc1ccc2c3c([nH]c2c1)C(C)=NCC3 [Harmaline, harmaline] | − | − | + | + | 
4 | COc1ccc2c(c1)[nH]c1c(C)nccc12 [Harmine, harmine] | − | − | ++ | − | No N-alkylated alkaloid product compounds were detected
5 | NCCc1c[nH]cn1 [Histamine, histamine] | − | − | − | − | No N-alkylated alkaloid product compounds were detected
6 | COc1cc(CCN)cc(OC)c1OC [Mescaline, mescaline] | − | − | − | + | 
7 | NC(=O)c1cccnc1 [Nicotinamide, nicotinamide] | − | − | − | − | No N-alkylated alkaloid product compounds were detected
8 | CC(N)C(O)c1ccccc1 (stereo not drawn) [Norephedrine, norephedrine] | − | − | − | + | 
9 | COc1ccc2c(c1OC)C(=O)O[C@@H]2[C@H]1c2c(cc3c(c2OC)OCO3)CCN1C [Noscapine, noscapine, reference compound] | ++ | +++ | Trace | − | No N-alkylated alkaloid product compounds were detected
10 | COc1ccc(C[C@H]2c3cc(O)c(OC)cc3CCN2C)cc1O [S-Reticuline, reticuline] | +++ | ++ | + | + | 
11 | c1cc2c(c3c1C[C@H]1c4cc5c(cc4CCN1C3)OCO5)OCO2 [Stylopine, stylopine] | +++ | + | + | + | 
12 | COc1cc2c(cc1OC)CNCC2 [THQ2, 6,7-dimethoxy-1,2,3,4-tetrahydroisoquinoline] | + | + | +++ | +++ | 
13 | NCCc1c[nH]c2ccccc12 [Tryptamine, tryptamine] | Trace | Trace | Trace | +++ | 
14 | NCCc1ccc(O)cc1 [Tyramine, tyramine] | − | − | + | + | 
